We go through 7 compounds from publication PMC8938452.

Each structure is given as a SMILES string.

A short description of this series: three-component macrocyclisation: bis(chloroacetamide) (1 eq) + diamine (1.2 eq) + CS2 (8 eq); in situ dithiocarbamate formation then S-alkylation (C-S bond, Cl displacement) at both ends, metal-free, no added base, 15 min. To be noted: the molecule shown is the open-chain precursor, PEG-200, 400.0 mM, 25.0 °C, 0.25 h.

For the compound `O=C(CCl)NCCCNC(=O)CSC(=S)N(CCN(Cc1ccccc1)C(=S)[S-])Cc1ccccc1` [6], for the setting “17-membered ring”, the ring closure, isolated yield worked out at 69.4%.

On to `CN(CCN(C)C(=O)CSC(=S)N(C)CCN(C)C(=S)[S-])C(=O)CCl` [2], for which the ring closure, isolated yield (16-membered ring) turned out to be 24.1%.

As to `CCCCN(CCN(CCCC)C(=S)SCC(=O)N(C)CCN(C)C(=O)CCl)C(=S)[S-]` [1], the ring closure, isolated yield (16-membered ring) is 61.3%.

For `CN(CCN(C)C(=S)SCC(=O)NCCN(C(=O)CCl)c1cccc2ccccc12)C(=S)[S-]` [7], the ring closure, isolated yield (16-membered ring) worked out at 84.6%.

Regarding `O=C(CCl)NCCCNC(=O)CSC(=S)NCCCCCCNC(=S)[S-]` [5], the ring closure, isolated yield (21-membered ring) was found to be 74.7%.

`O=C(CCl)NCCCNC(=O)CSC(=S)NCCCNC(=S)[S-]` [4]: the ring closure, isolated yield (18-membered ring) stood at 85.3%.

For `CN(CCN(C)C(=O)CSC(=S)NCCCNC(=S)[S-])C(=O)CCl` [3], for the setting “17-membered ring”, the ring closure, isolated yield turned out to be 78.5%.
